Results from PMC10063609, “Discovery of novel cardiac troponin activators using fluorescence polarization-based high throughput screening assays” (Scientific Reports, 2023).
Where a name gives a salt, the structure may show the parent alone.

These compounds were tested against interaction between cTnC and switch peptide of cTnI (cTnISP) (Homo sapiens, UniProt P63316) (assay: Fluorescence polarization HTS and dose-response, cTnC/FAM-cTnISP). Conditions: cTnISP primary screen, ENZO Screenwell library, single concentration 50 μmol/L.
Type: binding

| FP (mP) | SMILES |
| --- | --- |
| 88.9 mP | CN(C)CCCN1c2ccccc2Sc2ccc(Cl)cc21 [Chlorpromazine.HCl] |
| 82.4 mP | C[C@@H](NCCCc1cccc(C(F)(F)F)c1)c1cccc2ccccc12 [Cinacalcet.HCl] |
| 85.2 mP | CC(C)/N=c1\cc2n(-c3ccc(Cl)cc3)c3ccccc3nc-2cc1Nc1ccc(Cl)cc1 [Clofazimine] |
| 63.2 mP | CCN(CC)CCOc1ccc(C(=C(Cl)c2ccccc2)c2ccccc2)cc1 [Clomiphene Citrate] |

Same assay, conditions: cTnISP primary screen, LOPAC 1280 library, single concentration 50 μmol/L

| FP (mP) | SMILES |
| --- | --- |
| 109.8 mP | CCCCCCCCCCCCCCCC(=O)OC(CC(=O)O)C[N+](C)(C)C.[Cl-] (racemic) [Palmitoyl-DL-Carnitine chloride] |
| 89.4 mP | CCOC(=O)c1c(CSc2ccccc2)n(C)c2cc(Br)c(O)c(CN(C)C)c12.Cl [Arbidol hydrochloride] |
| 83.7 mP | c1ccc2cc(-c3ncc[nH]3)ccc2c1 [Benazoline oxalate] |
| 87 mP | Cc1cc(CN2CCN(c3c(Br)cnc4nc(-c5ccc(N6CCN(C)CC6)cc5)[nH]c34)CC2)no1 [CCT 137690] |
| 89.6 mP | Br.Cc1cc2nc(NCCCO)n(CC(=O)c3cc(C(C)(C)C)c(O)c(C(C)(C)C)c3)c2cc1C [CID2858522] |
| 84.1 mP | Cc1cc(CN)cc(C)c1NC(=O)c1ccc(-c2cc(Cl)ccc2Cl)o1 [CYM50358] |
| 83.6 mP | Clc1ccc(C(c2ccc(Cl)cc2)n2cc[n+](CC(OCc3ccc(Cl)cc3Cl)c3ccc(Cl)cc3Cl)c2)cc1 (stereo not shown) [Calmidazolium chloride] |
| 91.3 mP | CN(C)CCCN1c2ccccc2Sc2ccc(Cl)cc21 [Chlorpromazine.HCl] |

| SMILES | FP (mP) |
| --- | --- |
| COc1cc(N2CCN(C)CC2)ccc1Nc1nccc(-c2cn(C)c3cnccc23)n1 [AZ 191] | 88.5 mP |

Same assay, conditions: cTnISP primary screen, TOCRIScreen library, single concentration 50 μmol/L

| FP (mP) | SMILES |
| --- | --- |
| 82.8 mP | CCN(CC)CCCCN1c2ccccc2Oc2ccc(Cl)cc21.Cl [10-DEBC hydrochloride] |
| 77.8 mP | CCN1CCN(Cc2ccc(-c3cc4c(N[C@H](C)c5ccccc5)ncnc4[nH]3)cc2)CC1 [AEE 788] |
| 90 mP | Cn1c(NC[C@@H](N)Cc2ccccc2)nc(-c2ccncc2)c(-c2ccc3ccccc3c2)c1=O [AMG 548] |
| 83.4 mP | Cc1cc(N2C[C@@H](C)N[C@@H](C)C2)ncc1-c1ccc(-c2nc3c(ccn3C)c(=O)[nH]2)cc1 [AZ 6102] |
| 86 mP | O=C1CCc2ccc(OCCCCN3CCN(c4cccc(Cl)c4Cl)CC3)cc2N1 [Aripiprazole] |
| 88.2 mP | Cc1c(NC(=O)OC[C@@H]2COCCN2)cn2ncnc(Nc3ccc4c(cnn4Cc4cccc(F)c4)c3)c12.Cl.Cl [BMS 599626 dihydrochloride] |
| 73.2 mP | CC(C)c1cnn2c(NCc3ccccc3)cc(NCCCCCCN)nc12.Cl.Cl [BS 181 dihydrochloride] |
| 77.1 mP | O[C@@H](CN1CCNCC1)Cn1c2ccc(Br)cc2c2cc(Br)ccc21 [Bax channel blocker] |
| 87 mP | CC(C)COCC(CN(Cc1ccccc1)c1ccccc1)N1CCCC1 (stereo not shown) [Bepridil hydrochloride] |
| 80.4 mP | OCCNC1CCCc2c1[nH]c1ccc(-c3ccccc3)cc21 (stereo not shown) [CASIN] |
| 83.6 mP | Cc1cc(CN2CCN(c3c(Br)cnc4nc(-c5ccc(N6CCN(C)CC6)cc5)[nH]c34)CC2)no1 [CCT 137690] |
| 81.9 mP | CCCNc1ccc2ncc(-c3ccc4[nH]ncc4c3)n2n1.O=C(O)C(F)(F)F [CHR 6494 trifluoroacetate] |
| 74.4 mP | CCN1CCN(Cc2ccc(C(=O)Nc3ccc(C)c(Oc4ccc5c(c4)CC(=O)N5)c3)cc2C(F)(F)F)CC1.Cl.Cl [DDR1-IN-1 dihydrochloride] |
| 81 mP | CN1CCN(c2ccc(/C=C(\C#N)c3ccccc3Br)cc2)CC1.Cl.Cl [DG 172 dihydrochloride] |

| SMILES | FP (mP) |
| --- | --- |
| COc1cc(N2CCN(C)CC2)ccc1Nc1nccc(-c2cn(C)c3cnccc23)n1 [AZ 191] | 83.4 mP |
| Cc1c(-c2ccc(O)cc2)n(Cc2ccc(OCCN3CCCCCC3)cc2)c2ccc(O)cc12 [Bazedoxifene acetate] | 74.5 mP |
| COc1cc2nc(N3CCC(N4CCCCC4)CC3)nc(NC3CCCCCC3)c2cc1OC.Cl.Cl [C 021 dihydrochloride] | 87.1 mP |
| CCCC[C@@H](C=O)NC(=O)[C@H](CC(C)C)NC(=O)OCc1ccccc1 [Calpeptin] | 121.8 mP |
